# According to PubChem BioAssay (NCI):
# Several values for one entry are separate records, joined by “and”; a condition that tells them apart may be missing. Equal values may be shown once.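 Results reflect a 48-hour exposure of cells in 96-well plates to compound at five concentrations. GI50 is the concentration that inhibits growth by half. TGI: total growth inhibition.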
# Assays:
# Test in all cases: inhibition of tumour cell growth, NCI panel, 48 h
# OVCAR-4 ovarian = system: OVCAR-4 ovarian
# NCI-H522 lung = system: NCI-H522 lung
# SN12C renal = system: SN12C renal
# TK-10 renal = system: TK-10 renal
# HOP-62 NSCLC = system: HOP-62 NSCLC
# HOP-92 NSCLC = system: HOP-92 NSCLC
# ACHN renal = system: ACHN renal
# HS 578T breast = system: HS 578T breast
# SNB-75 CNS = system: SNB-75 CNS
# SW-620 colon = system: SW-620 colon
SMILES,TGI (OVCAR-4 ovarian),TGI (NCI-H522 lung),TGI (SN12C renal),TGI (TK-10 renal),TGI (HOP-62 NSCLC),TGI (HOP-92 NSCLC),TGI (ACHN renal),TGI (HS 578T breast) [µM],TGI (SNB-75 CNS),TGI (SW-620 colon),GI50 (SW-620 colon) [µM],GI50 (SN12C renal) [µM],GI50 (HOP-62 NSCLC) [µM],GI50 (HOP-92 NSCLC) [µM],GI50 (ACHN renal) [µM],GI50 (HS 578T breast) [µM],GI50 (OVCAR-4 ovarian) [µM],GI50 (NCI-H522 lung) [µM],GI50 (TK-10 renal) [µM],GI50 (SNB-75 CNS) [µM]
CN(C)C=Nc1c2c(nc3ccccc13)CCCC2,> 100 µM,> 100 µM,> 100 µM,> 100 µM,> 100 µM,> 100 µM,> 100 µM,> 100,> 100 µM,–,–,–,–,–,–,–,–,–,–,–
Cc1csc2c(=O)n(COCc3ccccc3)c(=O)[nH]c12,> 100 µM,> 100 µM,> 100 µM,> 100 µM,> 100 µM,> 100 µM,> 100 µM,> 100,> 100 µM,> 100 µM,–,–,–,–,–,–,–,–,–,–
Nc1nc(N)c2nc(CNc3ccc(C(=O)NC(CCNC(=O)c4ccccc4C(=O)O)C(=O)O)cc3)cnc2n1 (stereo not given),> 100 µM,> 100 µM,> 100 µM,> 100 µM,> 100 µM,> 100 µM,> 100 µM,> 100,> 100 µM,> 100 µM,0.00628,0.102,0.0635,> 100,0.0451,0.49,–,–,–,–
Clc1ccc(Nc2nnc(CNc3ccc(-c4nnc(Nc5ccc(Cl)cc5)o4)cc3)o2)cc1,42.6 µM,37.1 µM,36.9 µM,28.9 µM,35.1 µM,48.7 µM,43.6 µM,36.7,45.1 µM,51.2 µM,–,–,–,–,–,–,–,–,–,–
CP(=O)(O)C(N)c1ccccc1 (stereo not given),> 100 µM,> 100 µM,> 100 µM,> 100 µM,> 100 µM,> 100 µM,> 100 µM,> 100,–,> 100 µM,–,–,–,–,–,–,–,–,–,–
NC(CS)C(=O)NCCNc1ccc(NCCNC(=O)C(N)CS)c2c1C(=O)c1c(O)ccc(O)c1C2=O (stereo not given),0.847 µM and 0.401 µM,0.421 µM and 0.127 µM,0.0822 µM and 0.0691 µM,3.58 µM and 0.49 µM,0.03 µM and 0.0483 µM,0.195 µM and 1.03 µM,0.123 µM and 0.104 µM,0.615,0.2 µM and 0.206 µM,1.24 µM and 1.01 µM,0.0218,–,–,0.0416,–,–,0.109,0.0165,0.08,0.0146
CCOC(=O)c1cc([N+](=O)[O-])cc([N+](=O)[O-])c1Sc1ncnc2nc[nH]c12,2.41 µM,4.39 µM,5.34 µM,9.55 µM,24.5 µM,2.52 µM,4.17 µM,71.2,25.1 µM,> 100 µM,–,–,–,–,–,–,–,–,–,–
COC1=CC(c2ccc[nH]2)=N/C1=C\c1[nH]c(C)c(C)c1CCC(=O)OCc1ccccc1,4.43 µM,1.62 µM,–,3.09 µM,1.84 µM,0.732 µM,–,1.68,0.728 µM,1.62 µM,0.322,–,0.355,0.217,–,0.289,0.246,0.256,0.39,0.226
CN1C(=O)[C@@H]2[C@@H]3c4ccccc4N[C@@H]3c3[nH]c4ccccc4c3[C@@H]2C1=O,54.3 µM,–,> 100 µM,77.6 µM,43.5 µM,59.7 µM,49.9 µM,76.5,85.8 µM,> 100 µM,–,–,–,–,–,–,–,–,–,–
Cc1ccc(Cc2n[nH]c(=O)n2N2C(=O)c3ccccc3C2=O)cc1,> 100 µM,–,> 100 µM,> 100 µM,> 100 µM,> 100 µM,> 100 µM,> 100,> 100 µM,> 100 µM,–,–,–,–,–,–,–,–,–,–
CON(C(=O)OC(C)(C)C)c1ccccc1,> 100 µM,> 100 µM,–,> 100 µM,> 100 µM,> 100 µM,> 100 µM,> 100,> 100 µM,> 100 µM,–,–,–,–,–,–,–,–,–,–
COc1ccccc1[C@@H]1CCC2CC[C@@H](c3ccccc3OC)[N+]21Cc1ccccc1 (stereo not given in full),16.1 µM,11.5 µM,10.4 µM,20.3 µM,13.3 µM,4.06 µM,12.6 µM,35.8,8.65 µM,22.5 µM,–,–,–,–,–,–,–,–,–,–
N#CCN1CCCN(CC#N)CCN(CC#N)CCCN(CC#N)CC1,> 100 µM,> 100 µM,> 100 µM,> 100 µM,> 100 µM,> 100 µM,> 100 µM,> 100,> 100 µM,> 100 µM,–,–,–,–,–,–,–,–,–,–
O=C1C=CC(=O)[C@H]2C3C=CC(C4C3C3(Cl)C(Cl)=C(Cl)[C@]4(Cl)C3(Cl)Cl)[C@@H]12 (stereo not given in full),16.2 µM,23.1 µM,18.2 µM,30.5 µM,31.1 µM,7.69 µM,20.9 µM,31.2,25 µM,23.2 µM,–,–,–,–,–,–,–,–,–,–
Cc1cc(N)c2cc(NC(=O)Nc3ccc4nc(C)cc(N)c4c3)ccc2n1,> 100 µM,> 100 µM,> 100 µM,> 100 µM,> 100 µM,> 100 µM,> 100 µM,> 100,–,> 100 µM,–,–,–,–,–,–,–,–,–,–
CCN(CCN(CC)C(=O)NC)C(=O)NC,–,> 100 µM,> 100 µM,> 100 µM,> 100 µM,> 100 µM,> 100 µM,> 100,> 100 µM,> 100 µM,–,–,–,–,–,–,–,–,–,–

SMILES,TGI (OVCAR-4 ovarian),TGI (NCI-H522 lung),TGI (SN12C renal),TGI (TK-10 renal),TGI (HOP-62 NSCLC),TGI (HOP-92 NSCLC),TGI (ACHN renal),TGI (HS 578T breast) [µM],TGI (SNB-75 CNS),TGI (SW-620 colon),GI50 (SW-620 colon) [µM],GI50 (SN12C renal) [µM],GI50 (HOP-62 NSCLC) [µM],GI50 (HOP-92 NSCLC) [µM],GI50 (ACHN renal) [µM],GI50 (HS 578T breast) [µM],GI50 (OVCAR-4 ovarian) [µM],GI50 (NCI-H522 lung) [µM],GI50 (TK-10 renal) [µM],GI50 (SNB-75 CNS) [µM]
O=C(NCCC1CN(S(=O)(=O)C(F)(F)F)c2ccccc21)OCc1ccccc1 (stereo not given),> 100 µM,> 100 µM,–,–,> 100 µM,> 100 µM,> 100 µM,> 100,–,> 100 µM,–,–,–,–,–,–,–,–,–,–
CC1(C)OC2OC(C(=O)c3ccccc3)C3OC(C)(C)OC3C2O1 (stereo not given),> 100 µM,> 100 µM,> 100 µM,> 100 µM,> 100 µM,> 100 µM,> 100 µM,> 100,> 100 µM,> 100 µM,–,–,–,–,–,–,–,–,–,–
CN(C)CCCN=c1c2ccccc2n(C)c2[nH]c(=O)n(C)c(=O)c12,36.2 µM,9.34 µM,> 51.6 µM,25.7 µM,29.9 µM,> 84.7 µM,98.3 µM,52.6,21.5 µM,28.1 µM,–,–,–,–,–,–,–,–,–,–
COc1cccc(/C=N/NC(=O)CN(C)C)c1O,> 100 µM,> 100 µM,> 100 µM,> 100 µM,> 100 µM,> 100 µM,> 100 µM,> 100,–,> 100 µM,–,–,–,–,–,–,–,–,–,–
O=C1c2c(F)c(F)c(F)c(F)c2SC2=Nc3cccc4cccc(c34)N12,9 µM,9.01 µM,10.4 µM,26.1 µM,27.2 µM,6.7 µM,16.8 µM,7.73,25.5 µM,12 µM,–,–,–,–,–,–,–,–,–,–
CC(=O)CC12NC(=O)N(C)N=C1N(C)C(=O)N(C)C2=O (stereo not given),> 100 µM,> 100 µM,> 100 µM,> 100 µM,> 100 µM,> 100 µM,> 100 µM,> 100,> 100 µM,> 100 µM,–,–,–,–,–,–,–,–,–,–
COC(=O)C1=C(C)NC2=C(C(=O)c3ccccc32)C1c1cn[nH]c1-c1ccccc1 (stereo not given),> 100 µM,> 100 µM,> 100 µM,–,> 100 µM,> 100 µM,> 100 µM,> 100,> 100 µM,> 100 µM,–,–,–,–,–,–,–,–,–,–
CCOC(=O)[C@@]12NN=N[C@@H]1[C@H]1CO[C@H](c3ccccc3)N1C2=O,32.4 µM,13.1 µM,26.8 µM,30.5 µM,30.6 µM,8.58 µM,28.2 µM,17.8,–,25.5 µM,–,–,–,–,–,–,–,–,–,–
COc1cc(/C=C/C2=NN(c3cccc(S(=O)(=O)O)c3)C3(C2)SCC(=O)N3c2nc3ccccc3s2)cc(OC)c1OC (stereo not given),> 100 µM,38.4 µM,> 100 µM,93.3 µM,–,> 100 µM,> 100 µM,> 100,> 100 µM,> 100 µM,–,–,–,–,–,–,–,–,–,–
NCCN(CCN)/[N+]([O-])=N/O,> 100 µM,> 100 µM,> 100 µM,> 100 µM,> 100 µM,> 100 µM,> 100 µM,> 100,> 100 µM,> 100 µM,–,–,–,–,–,–,–,–,–,–
O=C(c1cccnc1)N1N=C(c2ccc3c(c2)OCO3)CC1(O)c1cc(F)c(Cl)cc1Cl (stereo not given),> 100 µM,33.8 µM,36.5 µM,> 100 µM,48.7 µM,68.9 µM,38.9 µM,> 100,39.8 µM,84.5 µM,–,–,–,–,–,–,–,–,–,–
CCc1n[nH]c(=O)n1N=C(c1ccccc1)c1ccccc1,> 100 µM,> 100 µM,> 100 µM,> 100 µM,> 100 µM,> 100 µM,> 100 µM,> 100,–,> 100 µM,–,–,–,–,–,–,–,–,–,–
Cc1cc2c(cc1-c1cc3c(cc1C)C(C(C)C)=C(O)C(=O)/C3=C\Nc1ccccn1)/C(=C/Nc1ccccn1)C(=O)C(O)=C2C(C)C,> 100 µM,74.8 µM,> 100 µM,> 100 µM,–,> 100 µM,> 100 µM,> 100,> 100 µM,> 100 µM,–,–,–,–,–,–,–,–,–,–
O=C(CBr)NCCc1c[nH]c2ccccc12,4 µM,0.458 µM,2.65 µM,3.37 µM,–,4.88 µM,3.2 µM,42.2,3.12 µM,7.71 µM,–,–,–,–,–,–,–,–,–,–
Cc1ccc(S(=O)(=O)NCCCSCCO)cc1,> 100 µM,> 100 µM,> 100 µM,> 100 µM,–,> 100 µM,> 100 µM,> 100,> 100 µM,> 100 µM,–,–,–,–,–,–,–,–,–,–
